Usually IC50 stands for the midpoint of a concentration-inhibition curve. One may read the inhibition as the drop in the measured response relative to a control, in per cent. The term Ki denotes a dissociation constant, usually derived from enzyme kinetics or from competition with a known ligand. What is called Km is the substrate concentration at which the rate is half of its maximum.

From patent US20250332141A1, “A PHARMACEUTICAL COMPOSITION COMPRISING AN INHIBITOR OF GLUTAMINE SYNTHETASE ENZYME TO COMBAT ARTEMISININ RESISTANCE IN MALARIA” (Institute of Life Sciences, priority 2022, published 2025) come the findings set out here.

For series [1], the system named is ART-resistant PfCam3.I^R539T strain. The experiment in a line: Ring-stage survival assay (RSA) with ART-resistant strain. It is filed as cell-based, Plasmodium falciparum. The procedure: PfCam3.I^R539T strain was maintained under standard conditions. When the parasitemia reached around 2% with predominant ring stages, the cultures were subjected to two rounds of tight synchronization within a span of 3 h in the previous cycle, followed by one additional synchronization in the subsequent cycle when they are in early rings. […] The medium change was carried out at 48 and 72 h, and after 96 h, the culture parasitemia was examined by Giemsa-stained smears and flow cytometry. For growth assessment by ^3H-hypoxanthine uptake, the label was added at 72 h and the cells were harvested at 96 h. The experiments were carried out independently in RPMI^-gln and RPMI^Pgln medium.

Series [2] concerns Pf asexual stages (Pf3D7 cultures). The experiment in a line: MSO and PPT inhibition of in vitro growth of Pf cultures. It is filed as cell-based, Plasmodium falciparum. Conditions: for IC50: Plasmodium falciparum, read-out: IC50 for inhibiting Pf growth. The method, then:
The parasites were subcultured with fresh RBCs when the culture parasitemia reached around 2-5%. […] The isolated parasites were washed thoroughly with ice cold PBS for four times to remove the carry-over of proteins from RBC lysates. ART-resistant PfCam3.I^R539T strain was also maintained in a similar fashion. Giemsa-stained smears were routinely prepared to examine the parasite growth and parasitemia. Parasite growth assessment for experiments was carried out by Giemsa-stained smears, flow cytometry and ^3H-hypoxanthine uptake. […] The radioactive counts were measured using MicroBeta^2 Microplate Counters (PerkinElmer).

A further series deals with Pf protein synthesis. The series can be described thus: In vitro metabolic protein labelling with 35S-Methionine and Cysteine. Type of series: cell-based. To be noted: Plasmodium falciparum, 12 h treatment; for inhibition at 50 µM / inhibition at 250 µM: RPMI^-gln medium; for inhibition at 1000 µM: 1 mM, RPMI^Pgln medium. The method, then: After 9 h of radiolabelling, parasites were isolated by saponin lysis, resuspended in 50 mM Tris pH 8.0 containing 100 mM NaCl, 2% glycerol and 0.1% Triton X-100, and lysed by sonication. The lysates were resolved on 10% SDS-PAGE gel and phosphorimager scanning was carried out to examine the radiolabelling of proteins using Amersham Typhoon 5 Biomolecular Imager. In parallel, 10 μl of the lysates were spotted on Whatman filter paper grade I, dried and washed subsequently with hot and cold 10% (w/v) trichloroacetic acid to remove free amino acids and charged-tRNAs, followed by diethyl ether to remove lipids. The filter papers were then placed in Ultima Gold XR scintillation cocktail and the radioactive counts were measured using MicroBeta^2 Microplate Counters. All these experiments were performed with identical parasitemia and hematocrit between the untreated and treated groups by equally splitting the infected cultures.

The next series concerns Pf parasites. Conditions: RPMI^-gln medium; 50 and 250 μM MSO, 12 h. The method, then: Parasite pellets were then extracted with 10 volumes of 50% methanol in water (v/v), followed by lyophilisation and solubilizing the lyophilized extracts with 50 μl of water. […] For LC-MS/MS, the parasite extracts were derivatized with 6-aminoquinolyl-N-hydroxysuccinimidyl carbamate (AQC), cleaned up with SPE and dried under vacuum, followed by reconstitution with 50 μl of 0.5% acetonitrile containing 0.1% formic acid. 10 μl of the sample was used for LC-MS/MS analysis carried out in Acquity C18 column (1.8 μm, 2.1 mm×100 mm) using Dionnex Ultimate3000 UHPLC system coupled with Q Exactive mass spectrometer (Thermo Fisher Scientific). Mobile phase consisted of Solvent A: 10 mM ammonium acetate containing 0.1% formic acid and solvent B: acetonitrile containing 0.1% formic acid. Mass spectrometry was performed under spray voltage of 4000/2500V with vaporizer temperature of 250° C., sheath gas and auxillary gas flow rate of 30 and 10 Arb, respectively. The acquisition was performed in Parallel Reaction Monitoring mode at 35000 resolution with a normalized collision energy of 25 eV. The calibration curves were prepared for the individual amino acids and the samples were spiked with internal standards containing deuterated amino acids.

The subject of series [3] is eIF2α phosphorylation in Pf3D7 rings. To be noted: 250 μM for 6 h, RPMI^-gln medium. The procedure:
Pf3D7 cultures were subjected to two rounds of tight synchronization within a span of 3 h in the previous cycle, followed by one additional synchronization in the subsequent cycle immediately after RBC invasion.

A further series has as its system Pf clinical isolates. The experiment in a line: Inhibition studies with Pf clinical samples (3H-hypoxanthine uptake). Type of series: cell-based, Plasmodium falciparum. Conditions: in vitro cultures without or with glutamine; n=7 clinical isolates.
The target of series [4] is T1, rPfGS (Plasmodium falciparum glutamine synthetase) (Plasmodium falciparum, UniProt C0H551).
T1 sequence (C0H551 1-543): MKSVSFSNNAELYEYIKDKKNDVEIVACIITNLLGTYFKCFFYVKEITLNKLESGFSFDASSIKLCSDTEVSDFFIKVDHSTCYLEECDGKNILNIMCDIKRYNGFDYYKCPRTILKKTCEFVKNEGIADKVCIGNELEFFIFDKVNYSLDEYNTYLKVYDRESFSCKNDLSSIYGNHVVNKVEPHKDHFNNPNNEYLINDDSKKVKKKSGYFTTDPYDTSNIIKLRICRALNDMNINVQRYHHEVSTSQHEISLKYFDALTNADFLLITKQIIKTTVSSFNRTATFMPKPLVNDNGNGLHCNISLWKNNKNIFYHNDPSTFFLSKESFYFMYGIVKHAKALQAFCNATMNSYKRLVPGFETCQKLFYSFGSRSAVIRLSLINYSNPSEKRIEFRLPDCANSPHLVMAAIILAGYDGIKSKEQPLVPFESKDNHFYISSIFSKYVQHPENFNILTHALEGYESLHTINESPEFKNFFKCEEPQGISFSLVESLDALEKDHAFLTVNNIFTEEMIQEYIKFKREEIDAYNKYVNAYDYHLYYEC
The experiment in a line: Recombinant PfGS enzyme assay (HPLC glutamine formation / Pi release) and inhibition. It is filed as biochemical.

Substrate in series [5]: N
The description is as above. Type of series: biochemical, Plasmodium falciparum. To be noted: other: Lineweaver-Burk plots; mean±SD, at least three different protein preparations.

Substrate in series [6]: N[C@@H](CCC(=O)O)C(=O)O
The series is described as above. Type of series: biochemical, Plasmodium falciparum. Conditions: other: Lineweaver-Burk plots; mean±SD, at least three different protein preparations.

Substrate in series [7]: Nc1ncnc2c1ncn2[C@@H]1O[C@H](COP(=O)(O)OP(=O)(O)OP(=O)(O)O)[C@@H](O)[C@H]1O
The series is described as above. Type of series: biochemical, Plasmodium falciparum. Conditions: other: Lineweaver-Burk plots; mean±SD, at least three different protein preparations.

Like-named read-outs stand apart in the source and are kept apart here.

For the molecule `C[C@@H]1CC[C@H]2[C@@H](C)C(=O)O[C@@H]3O[C@@]4(C)CC[C@@H]1[C@]32OO4` [ART, artemisinin], in series [1] (700 nM exposure for 6 h, PfCam3.I^R539T cultures, after 72 h), the “viable parasites after exposure in RSA” value was “resulted in viable parasites”.

Regarding `CS(=N)(=O)CC[C@H](N)C(=O)O` (stereo partly drawn) [MSO, L-methionine sulfoximine], the concentration for half-maximal inhibition (IC50) in series [2] is roughly 30 µM. For the same molecule, in the series on Pf protein synthesis, the inhibition at 50 µM lay within 40 to 50%, the inhibition at 250 µM was roughly 80% and the inhibition at 1000 µM was roughly 50%. Also, in the series with Pf parasites, the “free glutamine levels in treated Pf parasites with respect to untreated parasites” value is “did not show a significant decrease” and the “reduction of free asparagine levels with respect to untreated control” value is 1.5-2.0 fold. Moreover, in series [3], the “phosphorylation of eIF2α in Pf” value was “prominent phosphorylation”. Besides, the “growth of Pf clinical samples” value in the series on Pf clinical isolates is reported as “could inhibit the growth of Pf clinical samples to the extent that was observed for Pf3D7 strain”. Also, the “inhibition with respect to the untreated control” value in series [1] (MSO alone for 6 h, PfCam3.I^R539T rings) is recorded as 10-20%.

`CP(=O)(O)CCC(N)C(=O)O` (centres unmarked) [PPT, Phosphinothricin]: the inhibition constant (Ki) in [4] turned out to be 2.31 ± 1.1 µM. Moreover, the IC50 in series [2] (RPMI medium lacking glutamine (RPMI^-gln)) is roughly 30 µM. Besides, the “IC50 in RPMI^Pgln relative to IC50 in RPMI^-gln” value in series [2] (RPMI medium containing physiological levels (0.5 mM) of glutamine (RPMI^Pgln)) is listed as roughly 10 times higher. Moreover, in the series with Pf protein synthesis, the inhibition at 50 µM was 40 to 50%, the inhibition at 250 µM is roughly 80% and the inhibition at 1000 µM was roughly 50%. Moreover, the “growth of Pf clinical samples” value with Pf clinical isolates is listed as “could inhibit the growth of Pf clinical samples to the extent that was observed for Pf3D7 strain”.

B1: rPfGS (Plasmodium falciparum glutamine synthetase) (Plasmodium falciparum 3D7) (protein)
chain: MKSVSFSNNAELYEYIKDKKNDVEIVACIITNLLGTYFKCFFYVKEITLNKLESGFSFDASSIKLCSDTEVSDFFIKVDHSTCYLEECDGKNILNIMCDIKRYNGFDYYKCPRTILKKTCEFVKNEGIADKVCIGNELEFFIFDKVNYSLDEYNTYLKVYDRESFSCKNDLSSIYGNHVVNKVEPHKDHFNNPNNEYLINDDSKKVKKKSGYFTTDPYDTSNIIKLRICRALNDMNINVQRYHHEVSTSQHEISLKYFDALTNADFLLITKQIIKTTVSSFNRTATFMPKPLVNDNGNGLHCNISLWKNNKNIFYHNDPSTFFLSKESFYFMYGIVKHAKALQAFCNATMNSYKRLVPGFETCQKLFYSFGSRSAVIRLSLINYSNPSEKRIEFRLPDCANSPHLVMAAIILAGYDGIKSKEQPLVPFESKDNHFYISSIFSKYVQHPENFNILTHALEGYESLHTINESPEFKNFFKCEEPQGISFSLVESLDALEKDHAFLTVNNIFTEEMIQEYIKFKREEIDAYNKYVNAYDYHLYYEC
Regarding B1, the Michaelis-Menten constant (Km) in series [5] stood at 530 ± 180 µM; in series [6], 730 ± 210 µM; in series [7], 750 ± 140 µM.
